According to patent US20100247525A1 (priority 2006, published 2010):
Values joined by “and” are separate entries in the source; they are usually repeats but may differ in a detail not shown here. Identical values can stand only once.

Key:
[1] = test system: NFkappaB translocation; conditions: mouse, in vivo
[2] = target: T1, human TNF-α (Homo sapiens, UniProt P01375); conditions: in vivo
T1 construct: purchased Chemicon, Inc

[3] = test system: LeTx pre-sensitized mice; conditions: mouse, in vivo

T1 sequence (P01375 77-233 limits assumed): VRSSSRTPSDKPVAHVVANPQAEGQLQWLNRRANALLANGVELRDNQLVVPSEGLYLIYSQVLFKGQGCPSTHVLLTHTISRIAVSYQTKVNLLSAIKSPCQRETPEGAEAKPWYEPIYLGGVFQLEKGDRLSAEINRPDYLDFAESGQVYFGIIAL

`Cc1ccc(=O)n(-c2ccccc2)c1` [Pirfenidone] was tested, and the survival enhancement [1] was 40% and 20%.
For Etanercept, the prevention of lethality [2] was “prevents lethality” and the “protection when the death initiator is human TNF-α” value [2] was “protects”.
PAM3-CSK-4 was tested, and the “initiation of RDP” value [3] was “initiates RDP” and the “initiation of RDP (death initiator)” value [3] was “death initiators”.
